According to ChEMBL document CHEMBL5532754, “Discovery of aurones bearing two amine functionalities as SHIP2 inhibitors with insulin-sensitizing effect in rat myotubes” (RSC Med Chem, 2024):
Where a name gives a salt, the structure may show the parent alone. Calls of active or inactive are those of the source. The calls are words filed in the database; no cut-off is given here.

How the values were obtained:
L6 [1] = experiment: Induction of glucose uptake in serum-starved rat L6 myotubes at 20 uM by luminescence based microplate reader analysis; type: functional, cell-based
[2] = Thiol (sulfhydryl) reactivity of compound assessed as change in absorbance at 200 uM at pH 7.4 aqueous buffer measured upto 24 hrs in presence of DTT; type: ADME; conditions: pH 7.4, 24 h
[3] = target: T1, Phosphatidylinositol 3,4,5-trisphosphate 5-phosphatase 2 (Rattus norvegicus) (UniProt Q9WVR3); experiment: Inhibition of SHIP2 in serum-starved rat L6 myotubes assessed as increase in phosphorylated Akt to total Akt level at 20 to 40 uM incubated for 24 hrs by ELISA; type: cell-based; conditions: dose 20-40 µM
T1 sequence (whole entry): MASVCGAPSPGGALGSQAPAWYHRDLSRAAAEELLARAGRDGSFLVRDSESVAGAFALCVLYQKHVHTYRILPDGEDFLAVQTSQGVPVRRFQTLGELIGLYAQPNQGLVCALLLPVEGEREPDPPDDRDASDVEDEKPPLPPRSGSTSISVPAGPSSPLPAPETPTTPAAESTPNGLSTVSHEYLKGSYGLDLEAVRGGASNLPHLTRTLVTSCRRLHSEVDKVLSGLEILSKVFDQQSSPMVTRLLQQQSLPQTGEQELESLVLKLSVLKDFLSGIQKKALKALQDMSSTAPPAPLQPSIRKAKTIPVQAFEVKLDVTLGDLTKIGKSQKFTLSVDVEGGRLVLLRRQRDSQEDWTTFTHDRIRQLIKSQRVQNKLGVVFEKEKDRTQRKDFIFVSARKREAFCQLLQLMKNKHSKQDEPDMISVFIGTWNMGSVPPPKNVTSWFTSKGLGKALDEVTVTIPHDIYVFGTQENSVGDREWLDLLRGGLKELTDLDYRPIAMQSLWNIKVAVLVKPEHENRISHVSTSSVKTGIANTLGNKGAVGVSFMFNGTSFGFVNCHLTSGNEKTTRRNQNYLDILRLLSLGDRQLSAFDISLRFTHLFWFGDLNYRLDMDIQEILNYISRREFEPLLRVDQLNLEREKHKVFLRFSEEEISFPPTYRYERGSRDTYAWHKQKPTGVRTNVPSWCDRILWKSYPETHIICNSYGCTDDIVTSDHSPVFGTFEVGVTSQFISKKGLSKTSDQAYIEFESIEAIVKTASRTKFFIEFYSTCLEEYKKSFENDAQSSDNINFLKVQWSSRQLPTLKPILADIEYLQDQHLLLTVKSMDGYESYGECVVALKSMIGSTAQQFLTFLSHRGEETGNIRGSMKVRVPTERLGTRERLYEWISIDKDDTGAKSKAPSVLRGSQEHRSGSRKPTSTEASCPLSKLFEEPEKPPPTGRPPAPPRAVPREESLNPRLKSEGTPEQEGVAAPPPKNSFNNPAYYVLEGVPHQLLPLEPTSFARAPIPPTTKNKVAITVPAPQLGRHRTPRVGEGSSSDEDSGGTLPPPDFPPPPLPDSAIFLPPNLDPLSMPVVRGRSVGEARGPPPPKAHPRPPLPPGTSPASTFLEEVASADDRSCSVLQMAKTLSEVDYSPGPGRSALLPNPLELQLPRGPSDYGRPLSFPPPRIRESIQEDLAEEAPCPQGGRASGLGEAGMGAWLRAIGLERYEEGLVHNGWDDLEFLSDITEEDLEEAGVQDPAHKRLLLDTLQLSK

[4] = Apparent permeability of the compound across apical to basolateral side in human Caco-2 cells at 30 uM incubated for 60 mins by LC analysis; type: ADME, cell-based
L6 [5] = experiment: Induction of glucose uptake in serum-starved rat L6 myotubes at 2 mM by luminescence based microplate reader analysis; type: functional, cell-based
L6 [6] = experiment: Insulin sensitizing activity in rat L6 myotubes assessed as increase in glucose uptake by measuring fold change at 2 mM preincubated with compound for 18 hrs followed by insulin addition and measured after 15 mins by luminescence based microplate reader analysis; type: functional; conditions: time 18.25 hrs
[7] = Thiol (sulfhydryl) reactivity of compound assessed as change in absorbance at 200 uM at pH 7.4 aqueous buffer measured at 1 to 24 hrs in presence of DTT; type: ADME; conditions: pH 7.4, 200 µM, time 1-24 hrs

For `O=C1/C(=C/c2cn(CCN3CCOCC3)c3ccccc23)Oc2cc(OCCN3CCCCC3)ccc21`, the Activity (L6 [1]) was “inactive”, the Activity [2] was “Not Active” and the inhibition [3] was “Active”.
For `O=C1/C(=C/c2cn(CCN3CCCCC3)c3ccccc23)Oc2cc(OCCN3CCCCC3)ccc21`, the Activity (L6 [1]) was “inactive”, the Activity [2] was “Not Active” and the Papp A→B at 1 h, 30 µM [4] was 25.3 ×10⁻⁶ cm/s. For the same compound, the inhibition [3] was “Active”.
For `CN(C)C(=N)NC(=N)N` [METFORMIN], the Activity (L6 [5]) was “inactive” and the “fold change (FC)” value (L6 [6]) was 1.6.
In the case of `CN(C)CCCn1cc(/C=C2\Oc3cc(OCCN4CCCCC4)ccc3C2=O)c2ccccc21`, the Activity (L6 [1]) is reported as “inactive”, the Activity [2] is reported as “Not Active” and the inhibition [3] is reported as “Active”.
With `COC(=O)/C=C/C(=O)OC` [DIMETHYL FUMARATE] the Activity [7] was “Active”.
